pIC50: −log10 of the molar value.

As a reminder, the pIC50 is −log10 of the IC50, conventionally taken in molar units.

Assay [1] relates to nitric oxide. The assay is described as follows: LPS-induced nitric oxide release (Griess reaction). To be noted: 100 μM, FIG. 2A lower panel. Type of assay: cell-based, murine. On the procedure:
LPS stimulation. Adherent macrophages or monocytes were gently washed with, and cultured in, serum-free OPTI-MEM I medium two hours before stimulation with bacterial endotoxin (lipopolysaccharide, LPS, E. coli 0111:B4, Sigma-Aldrich). At 16 hours after LPS stimulation, levels of HMGB1 in the culture medium were determined as previously described (Chen et al. 2004; Rendon-Mitchell et al. 2003; Wang et al. 1999).
(§1) Nitric oxide assay. The levels of nitric oxide in the culture medium were determined indirectly by measuring NO^2− production with a colorimetric assay based on the Griess reaction (Rendon-Mitchell et al. 2003). NO2-concentrations were determined with reference to a standard curve generated with sodium nitrite at various dilutions.
(The Griess reaction detects nitrite, a stable product of nitric oxide.)

Assay [2] has as its system lethal sepsis. As to the kind of experiment: Lethal sepsis induced by cecal ligation and puncture (CLP) in Balb/C mice. The assay is classed as in vivo. On the procedure:
Animal models of endotoxemia and sepsis. This study was approved and performed in accordance with the guidelines for the care and use of laboratory animals at the Feinstein Institute for Medical Research, Manhasset, N.Y. Endotoxemia was induced in Balb/C mice (male, 7-8 weeks) by intraperitoneal injection of bacterial endotoxin (LPS, 15 mg/kg) as previously described (Chen et al. 2005; Wang et al. 1999; Wang et al. 2006). Sepsis was induced in male Balb/C mice (7-8 weeks, 20-25 g) or Sprague-Dawley rats (290-310 g) by cecal ligation and puncture (CLP) as previously described (Wang et al. 2006; Yang et al. 2002b). Herbal components were administered intraperitoneally into mice at indicated doses and time points, and mice were monitored for survival for up to two weeks. In parallel experiments, mice were euthanized to collect blood at 28 h (following two doses of herbal components at −0.5 and +24 h) after endotoxemia, and at 52 h (following two doses of herbal components at +24 and +48 h) after CLP.
(§2) TNF ELISA. The levels of TNF in the culture medium or serum were determined using commercial enzyme linked immunosorbent assay (ELISA) kits (Catalog no. MTA00, R & D Systems, Minneapolis, Minn.) with reference to standard curves of purified recombinant TNF at various dilutions as previously described (Chen et al. 2004; Rendon-Mitchell et al. 2003; Wang et al. 2006).
as §1
(§3) HMGB1 western blotting analysis. The levels of HMGB1 in the culture medium or serum were determined by western blotting analysis as previously described (Chen et al. 2004; Rendon-Mitchell et al. 2003; Wang et al. 1999). The relative band intensity was quantified using NIH image 1.59 software to determine HMGB1 levels with reference to standard curves generated with purified HMGB1.
Tissue histology. At 48 hours after CLP, mice were euthanized in CO2 Chamber, and immediately perfused (transcardially) with phosphate buffer saline and 4% paraformaldehyde. Various tissues were harvested, sectioned, and stained with hematoxylin and eosin for morphology evaluation.

Assay [3] has as its system HMGB1. The assay is described as follows: LPS-induced HMGB1 release in RAW 264.7 macrophage cultures (western blot). Type of assay: cell-based, murine. The source says: Cell culture. […] Rendon-Mitchell et al. 2003). Murine macrophages were pre-cultured in RPMI 1640 medium (Gibco BRL, Grand Island, N.Y.) supplemented with 10% fetal bovine serum (FBS) and 2 mmol/L glutamine. Human peripheral blood mononuclear cells (HuPBMCs) were isolated from the blood of healthy donors (Long Island Blood Bank, Melville, N.Y.) by density gradient centrifugation through Ficoll (Ficoll-Paque PLUS, Pharmacia, Piscataway, N.J.), and cultured in RPMI 1640 supplemented with 10% heat-inactivated human serum/0.2 mM L-glutamine as previously described (Rendon-Mitchell et al. 2003). LPS stimulation. Adherent macrophages or monocytes were gently washed with, and cultured in, serum-free OPTI-MEM I medium two hours before stimulation with bacterial endotoxin (lipopolysaccharide, LPS, E. coli 0111:B4, Sigma-Aldrich). […] Rendon-Mitchell et al. 2003; Wang et al. 1999). HMGB1 western blotting analysis. The levels of HMGB1 in the culture medium or serum were determined by western blotting analysis as previously described (Chen et al. 2004; Rendon-Mitchell et al. 2003; Wang et al. 1999). The relative band intensity was quantified using NIH image 1.59 software to determine HMGB1 levels with reference to standard curves generated with purified HMGB1.

Assay [4] deals with TNF. The assay is described as follows: LPS-induced TNF release in human peripheral blood mononuclear cells (ELISA). The following applies: 100 μM, FIG. 2B lower panel. The assay is classed as cell-based. The procedure: (§4) Cell culture. Murine macrophage-like RAW 264.7 cells were obtained from the American Type Culture Collection (ATCC, Rockville, Md.), and primary peritoneal macrophages were isolated from Balb/C mice (male, 7-8 weeks, 20-25 grams) at 2-3 days after intraperitoneal injection of 2 ml thioglycollate broth (4%) as previously described (Chen et al. 2004; Rendon-Mitchell et al. 2003). Murine macrophages were pre-cultured in RPMI 1640 medium (Gibco BRL, Grand Island, N.Y.) supplemented with 10% fetal bovine serum (FBS) and 2 mmol/L glutamine. […]
(§5) LPS stimulation. […] At 16 hours after LPS stimulation, levels of HMGB1 in the culture medium were determined as previously described (Chen et al. 2004; Rendon-Mitchell et al. 2003; Wang et al. 1999).
as §2
Background: An ELISA detects its analyte on a solid surface through an enzyme-linked reagent.

For assay [5], the system named is HMGB1. The assay is described as follows: LPS-induced HMGB1 release in primary human peripheral blood mononuclear cells. To be noted: FIG. 2B. The assay is classed as cell-based. The procedure:
as §4, §5, §3

For `Cc1c(S(=O)(=O)[O-])oc2c1C(=O)C(=O)c1c-2ccc2c1CCCC2(C)C.[Na+]` [TSNIIA-SS, tanshinone IIA sodium sulfonate], the “effect on LPS-induced release of nitric oxide” value in assay [1] is reported as “did not completely block”. Also, the “signs of hepatic necrosis” value in assay [2] (15 mg/kg, histology 48 hours post onset of sepsis, control 2 out of 12 survivors) is given as “not observed in any of the 15 survivors”. Also, the “circulating nitric oxide levels” value in assay [2] (52 h after the onset of sepsis, vehicle 18.0±4.5 μmol/L, n=3, P>0.05) was found to be 15.5 ± 3.3 µmol/L. Further, in assay [2] (52 h after the onset of sepsis, vehicle 65+15 ng/L, P>0.05), the “circulating TNF levels” value is recorded as 85+23 ng/L. In addition, the “animal survival rate, lethal sepsis” value in assay [2] (repeated administration at 24, 48, 72, 96 hours post sepsis, control 33%, P<0.05) is 73%. Moreover, the “circulating HMGB1 levels in septic mice” value in assay [2] (repeated administration, 52 h post CLP, FIG. 7A, P<0.05) was “dose-dependently, and significantly attenuated”. Further, in assay [2] (single i.p. dose 15 mg/kg 24 h after onset of sepsis, saline control 33%, P>0.05), the “survival rate, lethal sepsis” value is 50%. The results for the “effect on LPS-induced HMGB1 release” value in assay [3] (100 μM) and in assay [5] were “completely abrogated” and “effectively inhibited”, respectively. Besides, the pIC50 in assay [3] (RAW 264.7 cells, 16 h after LPS, western blot, estimated, read-out: estimated IC50 for LPS-induced HMGB1 release) was > 5.30. The “inhibition of HMGB1 release on delayed addition” value in assay [3] (added 2 to 6 h after LPS, 25 or 50 μM, HMGB1 at 16 h) is reported as “significant inhibition was retained”. Besides, the “effect on LPS-induced release of TNF” value in assay [4] was “did not completely block”.

Values taken from US8513227B2, “Inhibition of inflammatory cytokine production with tanshinones” (The Feinstein Institute for Medical Research, priority 2006, dated 2013).
